# According to PubChem BioAssay (NCI):
#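 Interpolation was linear, between the two tested concentrations surrounding the appropriate level; five concentrations were tested over 48 hours in 96-well plates. TGI: total growth inhibition.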
# How the values were obtained:
# Test in all cases: growth of human tumour cells (NCI), 48 h
# [1] = test system: 786-0 renal
# [2] = test system: A498 renal
# [3] = test system: A549 NSCLC
# [4] = test system: ACHN renal
# [5] = test system: BT-549 breast
# [6] = test system: CAKI-1 renal
# [7] = test system: CCRF-CEM leukemia
# [8] = test system: COLO 205 colon
# [9] = test system: DU-145 prostate
# [10] = test system: EKVX NSCLC
# [11] = test system: HCC-2998 colon
# [12] = test system: HCT-116 colon
# [13] = test system: HCT-15 colon
# [14] = test system: HL-60(TB) leukemia
# [15] = test system: HOP-62 NSCLC
# [16] = test system: HOP-92 NSCLC
# [17] = test system: HS 578T breast
# [18] = test system: HT29 colon
# [19] = test system: IGROV1 ovarian
# [20] = test system: K-562 leukemia
# [21] = test system: KM12 colon
# [22] = test system: LOX IMVI melanoma
# [23] = test system: MALME-3M melanoma
# [24] = test system: MCF7 breast
# [25] = test system: MDA-MB-231 breast
# [26] = test system: MDA-MB-435
# [27] = test system: MDA-N
# [28] = test system: MOLT-4 leukemia
# [29] = test system: NCI-H226 lung
# [30] = test system: NCI-H23 lung
# [31] = test system: NCI-H460 lung
# [32] = test system: NCI-H522 lung
# [33] = test system: NCI/ADR-RES ovarian
# [34] = test system: OVCAR-3 ovarian
# [35] = test system: OVCAR-4 ovarian
# [36] = test system: OVCAR-5 ovarian
# [37] = test system: OVCAR-8 ovarian
# [38] = test system: PC-3 prostate
# [39] = test system: RPMI-8226 leukemia
# [40] = test system: RXF 393 renal
# [41] = test system: SF-268 CNS
# [42] = test system: SF-295 CNS
# [43] = test system: SF-539 CNS
# [44] = test system: SK-MEL-2 melanoma
# [45] = test system: SK-MEL-28 melanoma
# [46] = test system: SK-MEL-5 melanoma
# [47] = test system: SK-OV-3 ovarian
# [48] = test system: SN12C renal
# [49] = test system: SNB-19 CNS
# [50] = test system: SNB-75 CNS
# [51] = test system: SR leukemia
# [52] = test system: SW-620 colon
# [53] = test system: T-47D breast
# [54] = test system: TK-10 renal
# [55] = test system: U251 CNS
# [56] = test system: UACC-257 melanoma
# [57] = test system: UACC-62 melanoma
# [58] = test system: UO-31 renal
# [59] = test system: M14 melanoma
smiles,measurement,setting,value
CN(C)c1ccc(/C=C2\C[C@H]3[C@@H]4CCc5cc(OCCN6CCCC6)ccc5[C@H]4CC[C@]3(C)[C@H]2O)cc1,TGI,[1],5.05 µM
same,TGI,[2],34.9 µM
same,TGI,[3],20.3 µM
same,TGI,[4],42.9 µM
same,TGI,[5],31.1 µM
same,TGI,[6],30 µM
same,TGI,[7],5.99 µM
same,TGI,[8],27.9 µM
same,TGI,[9],26.2 µM
same,TGI,[10],41.8 µM
same,TGI,[11],14.5 µM
same,TGI,[12],8.78 µM
same,TGI,[13],> 100 µM
same,TGI,[14],43.3 µM
same,TGI,[15],35.5 µM
same,TGI,[16],24.7 µM
same,TGI,[17],> 61.9 µM
same,TGI,[18],> 25.7 µM
same,TGI,[19],39.7 µM
same,TGI,[20],> 37.5 µM
same,TGI,[21],> 60.2 µM
same,TGI,[22],> 100 µM
same,TGI,[23],> 30.2 µM
same,TGI,[24],30.1 µM
same,TGI,[25],16.4 µM
same,TGI,[26],39 µM
same,TGI,[27],46.3 µM
same,TGI,[28],46 µM
same,TGI,[29],37.4 µM
same,TGI,[30],31.4 µM
same,TGI,[31],30.2 µM
same,TGI,[32],7.69 µM
same,TGI,[33],53.6 µM
same,TGI,[34],30.9 µM
same,TGI,[35],> 58.8 µM
same,TGI,[36],31.1 µM
same,TGI,[37],18.9 µM
same,TGI,[38],48.9 µM
same,TGI,[39],> 63.8 µM
same,TGI,[40],33.9 µM
same,TGI,[41],61.7 µM
same,TGI,[42],30.4 µM
same,TGI,[43],22 µM
same,TGI,[44],34.8 µM
same,TGI,[45],11.9 µM
same,TGI,[46],22.9 µM
same,TGI,[47],31.7 µM
same,TGI,[48],47.4 µM
same,TGI,[49],46.1 µM
same,TGI,[50],28 µM
same,TGI,[51],10.2 µM
same,TGI,[52],18.6 µM
same,TGI,[53],47.5 µM
same,TGI,[54],11.6 µM
same,TGI,[55],17.6 µM
same,TGI,[56],19.5 µM
same,TGI,[57],39.5 µM
same,TGI,[58],16.8 µM
Cc1ncc(-c2nnnn2-c2ccccc2)c(C(=O)O)n1,TGI,[1],> 100 µM
same,TGI,[2],> 100 µM
same,TGI,[3],> 100 µM
same,TGI,[4],> 100 µM
same,TGI,[5],> 100 µM
same,TGI,[6],> 100 µM
same,TGI,[7],> 100 µM
same,TGI,[8],> 100 µM
same,TGI,[9],> 100 µM
same,TGI,[10],> 100 µM
same,TGI,[11],> 100 µM
same,TGI,[12],> 100 µM
same,TGI,[13],> 100 µM
same,TGI,[14],> 100 µM
same,TGI,[15],> 100 µM
same,TGI,[16],> 100 µM
same,TGI,[17],> 100 µM
same,TGI,[18],> 100 µM
same,TGI,[19],> 100 µM
same,TGI,[20],> 100 µM
same,TGI,[21],> 100 µM
same,TGI,[22],> 100 µM
same,TGI,[59],> 100 µM
same,TGI,[23],> 100 µM
same,TGI,[24],> 100 µM
same,TGI,[25],> 100 µM
same,TGI,[26],> 100 µM
same,TGI,[27],> 100 µM
same,TGI,[28],> 100 µM
same,TGI,[29],> 100 µM
same,TGI,[30],> 100 µM
same,TGI,[31],> 100 µM
same,TGI,[32],> 100 µM
same,TGI,[33],> 100 µM
same,TGI,[34],> 100 µM
same,TGI,[36],> 100 µM
same,TGI,[37],> 100 µM
same,TGI,[38],> 100 µM
same,TGI,[39],> 100 µM
same,TGI,[40],> 100 µM
same,TGI,[41],> 100 µM
same,TGI,[42],> 100 µM
same,TGI,[43],> 100 µM
same,TGI,[44],> 100 µM
same,TGI,[45],> 100 µM
same,TGI,[46],> 100 µM
same,TGI,[47],> 100 µM
same,TGI,[48],> 100 µM
same,TGI,[49],> 100 µM
same,TGI,[50],> 100 µM
same,TGI,[51],> 100 µM
same,TGI,[52],> 100 µM
same,TGI,[53],> 100 µM
same,TGI,[54],> 100 µM
same,TGI,[55],> 100 µM
same,TGI,[56],> 100 µM
same,TGI,[57],> 100 µM
same,TGI,[58],> 100 µM
CC(C)(C)OC(=O)NC(Cc1ccc(OCc2ccccc2)cc1)C(=O)NC(COCc1ccccc1)C(=O)Oc1c(Cl)c(Cl)c(Cl)c(Cl)c1Cl (centres undefined),TGI,[2],53.2 µM
same,TGI,[3],89.7 µM
same,TGI,[4],76.6 µM
same,TGI,[5],38.3 µM
same,TGI,[6],47.4 µM
same,TGI,[7],> 100 µM
same,TGI,[8],36.5 µM
same,TGI,[9],46.8 µM
same,TGI,[10],82.4 µM
same,TGI,[11],40.5 µM
same,TGI,[12],30.1 µM
same,TGI,[13],33.5 µM
same,TGI,[14],> 100 µM
same,TGI,[15],32.9 µM
same,TGI,[16],32.8 µM
same,TGI,[17],41.8 µM
same,TGI,[18],69.7 µM
same,TGI,[19],41.7 µM
same,TGI,[20],> 100 µM
same,TGI,[21],39 µM
same,TGI,[22],53 µM
same,TGI,[59],42.9 µM
same,TGI,[23],68.2 µM
same,TGI,[24],48.2 µM
same,TGI,[25],27.6 µM
same,TGI,[26],56.7 µM
same,TGI,[27],80.8 µM
same,TGI,[28],> 100 µM
same,TGI,[29],54.5 µM
same,TGI,[30],35.6 µM
same,TGI,[31],36.7 µM
same,TGI,[32],42 µM
same,TGI,[33],50 µM
same,TGI,[34],28.9 µM
same,TGI,[35],85.3 µM
same,TGI,[36],67.3 µM
same,TGI,[37],52.6 µM
same,TGI,[38],40.4 µM
same,TGI,[39],> 100 µM
same,TGI,[40],63.9 µM
same,TGI,[41],65.6 µM
same,TGI,[42],52.4 µM
same,TGI,[43],29.7 µM
same,TGI,[44],36.6 µM
same,TGI,[45],71.8 µM
same,TGI,[46],33.7 µM
same,TGI,[47],46.9 µM
same,TGI,[48],62.4 µM
same,TGI,[49],> 100 µM
same,TGI,[50],> 100 µM
same,TGI,[51],> 100 µM
same,TGI,[52],73 µM
same,TGI,[53],88.5 µM
same,TGI,[54],85.8 µM
same,TGI,[55],38.1 µM
same,TGI,[56],84.8 µM
same,TGI,[57],32.3 µM
same,TGI,[58],30.7 µM
